According to US20190352644A1, “INHIBITION OF MITOCHONDRIAL HYPOXIC STRESS INDUCED RNA EDITING BY APOBEC3G CYTIDINE DEAMINASE” (Health Research, Inc., priority 2015, published 2019):

Experiments:
NK-92 cells = assay: TM7SF3 C>U RNA editing in NK-92 cells treated with mitochondrial inhibitors; format: cell-based, human; details: NK-92, normoxia, intermediate density, 24 well plates, inhibitor 1 μM, 2 days
Procedure: We treated NK-92 cells with normoxia with or without the mitochondrial inhibitors (AtA5 or MXT) or hypoxia alone at intermediate density in 24 well plates for 2 days. […] The reason behind the difference in hypoxia induced RNA editing level of HuT78 and NK-92 cells may be due to metabolic differences between the two cell lines.
(§1) For testing the mitochondrial inhibitors, HuT78 and NK-92 cells were cultured at […] cells per 0.5 ml in 24 well plates in normoxia with or without AtA5 and MXT or hypoxia alone for 2 days at 37° C.
(§2) Human IFN-γ was obtained from PeproTech and used at a concentration of 50 ng/ml. AtA5 (Cayman chemical #11898) and MXT (Sigma Aldrich #T5580) was used at a concentration of 1 μM.
(§3) Total RNA was isolated and reverse transcribed to generate cDNAs. […] To quantify RNA editing level, the major and minor chromatogram peak heights at putative edited nucleotides were quantified with Sequencher 5.0/5.1 software (Gene Codes, MI). […] For quantitative PCR to assess APOBEC3G and APOBEC3F gene expression, reactions using LightCycler™ 480 Probes Master and SYBR™ Green I dye were performed on a LightCycler™ 480 System (Roche). Quantification cycle (Cq) values were calculated by the instrument software using the maximum second derivative method, and the mean Cq value of duplicate PCR reactions was used for analysis.

HuT78 cells = assay: TM7SF3 C>U RNA editing in HuT78 cells treated with mitochondrial inhibitors or thapsigargin; format: cell-based, human; details: HuT78, normoxia; for RNA editing level (TM7SF3): 0.5×10^6 cells per 500 μl, inhibitor 1 μM
Text: We tested the effect of inhibitors of mitochondrial complex II by atpenin A5 (AtA5) and of the complex III by myxothiazol (MXT) on RNA editing in HuT78 cells cultured in normoxia. Additionally, to test whether endoplasmic reticulum (ER) stress can also induce RNA editing, we treated the cells with Thapsigargin (Tg). Tg is considered to induce ER stress by raising intracellular calcium levels and lowers the ER calcium levels by specifically inhibiting the endoplasmic reticulum Ca^++ ATPase, resulting in the accumulation of unfolded proteins and an increased accumulation eIF-2α phosphorylated at Ser 51 (FIGS. 33c and 35b). To test the effect of hypoxic stress alone on HuT78 cells, we reduced the cell density to avoid cellular crowding and cultured the cells at an intermediate density of 0.5×10^6 cells per 500 μl per well in 24 well plates with or without the chemical inhibitors in normoxia, and hypoxia alone for one or two days. Under these conditions, we determined RNA editing level and the stabilization of HIF-1α in these cells. […] RNA editing levels increased to approximately 30% in cells treated with MXT, AtA5 or hypoxia alone on day 2. […] Furthermore, HIF-1α was stabilized only when the cells were subjected to hypoxia but not in normoxia in the presence or absence of the mitochondrial inhibitors (FIG. 32c).
as §1, §2
as §3, with “cDNAs. DNA primers used for PCR were obtained from Integrated DNA Technologies and are noted in Table 6. Primers used for PCR of cDNA templates were designed such that the amplicons spanned multiple exons.” for “cDNAs.”

APOBEC3A = biological target: T1, APOBEC3A (Homo sapiens, UniProt P31941); assay: In vitro SDHB RNA editing assay with purified APOBEC3A; format: biochemical; details: chelation of zinc with 10 μM 1,10-phenanthroline, 2 hours at 37° C
T1 construct: made in house; host or cells: Rosetta 2(DE3)pLysS E. coli; pET21 construct from Dr. Jinwoo Ahn
T1 sequence (P31941 whole entry): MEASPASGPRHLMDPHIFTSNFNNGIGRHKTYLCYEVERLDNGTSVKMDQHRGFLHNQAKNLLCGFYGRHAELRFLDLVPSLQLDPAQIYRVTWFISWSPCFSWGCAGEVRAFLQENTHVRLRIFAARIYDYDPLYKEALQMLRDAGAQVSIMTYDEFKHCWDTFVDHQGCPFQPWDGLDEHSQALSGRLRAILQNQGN
Procedure: Rosetta™ 2(DE3)pLysS E. coli (EMD Millipore®) transformed with a bacterial expression construct for C-His6-tagged APOBEC3A and grown in Luria broth at 37° C. were induced for expression of the recombinant protein with 0.3 mM isopropyl β-D-1-thiogalactopyranoside (IPTG) and cultured overnight at 18° C. Harvested cells were lysed with a French pressure cell (American Instrument Corporation®, Hartland, Wis.) and Ni-NTA His.Bind Resin™ (EMD Millipore®) was used as per manufacturer's instructions to purify APOBEC3A protein from the lysates by affinity chromatography. Isolated protein was concentrated using an Amicon™ Ultra-4 Centrifugal Filter Unit with Ultracel-3 membrane (EMD Millipore®; nominal molecular weight limit of 3 kDa). The concentrated protein was stored in 25 mM Tris (pH 8.0) with 50 mM NaCl, 1 mM DTT, 5% v/v glycerol, and 0.02% w/v sodium azide.
Whole cell lysates of 293T transfectants were prepared using lysis buffer containing 0.2% Surfact-Amps™ NP-40 (Thermo Fisher®), 30 mM 4-(2-hydroxyethyl)-1-piperazine-ethane-sulfonic acid (HEPES; pH 7.5), 100 mM KCl, 25 mM NaCl, 1.5 mM MgCl2, 1 mM DTT, and 0.5× Halt™ protease and phosphatase inhibitor cocktail, and stored with 10% v/v glycerol at −80° C. […]

Row | SMILES | RNA editing level (TM7SF3) (NK-92 cells) [%] | RNA editing level (TM7SF3) (HuT78 cells; day 1) | RNA editing level (TM7SF3) (HuT78 cells; day 2) | induction of RNA editing (TM7SF3) (HuT78 cells; one or two days) | c.136C>U editing of SDHB RNA by His6-tagged APOBEC3A (APOBEC3A)
1 | CO/C(=C/C(N)=O)[C@H](C)[C@H](/C=C/c1csc(-c2csc([C@@H](C)/C=C/C=C/C(C)C)n2)n1)OC [MXT, myxothiazol] | ~25 | approximately 10% | approximately 30% |  | 
2 | C/C=C(/C)C(=O)O[C@H]1C(C)=C2[C@H]([C@@H]1OC(=O)CCCCCCC)[C@@](C)(OC(C)=O)C[C@H](OC(=O)CCC)[C@@]1(O)[C@H]2OC(=O)[C@@]1(C)O [Tg, Thapsigargin] |  |  |  | did not induce RNA editing | 
3 | c1cnc2c(c1)ccc1cccnc12 [1,10-phenanthroline] |  |  |  |  | abolished the editing
4 | COc1[nH]c(=O)c(C(=O)[C@@H](C)C[C@H](C)[C@@H](Cl)CCl)c(O)c1OC [AtA5, atpenin A5] | ~25 |  | approximately 30% |  | 
